The subject of series [1] is Bemisia tabaci. The series can be described thus: Insecticidal activity against nymph stage of Bemisia tabaci (sweet potato whitefly) infested cotton leaves assessed as increase in mortality at 0.375 mg ai/seed measured 10 to 40 days post germination under green house conditions relative to untreated control. In kind it is functional, organism-based.
Series [2] deals with Bemisia tabaci. Briefly: Insecticidal activity against nymph stage of Bemisia tabaci (sweet potato whitefly) infested cotton leaves assessed as increase in mortality at 0.375 mg ai/seed measured 2 weeks post sowing to 9 weeks under field conditions relative to untreated control. The class given is functional, organism-based.
For series [3], the system named is Bemisia tabaci. The series can be described thus: Insecticidal activity against adult Bemisia tabaci (sweet potato whitefly) infested cotton leaves assessed as effect on laid eggs at 0.375 mg ai/seed measured 10 to 40 days post germination under laboratory conditions relative to untreated control. The class given is functional, organism-based.
The subject of series [4] is Bemisia tabaci. The series can be described thus: Insecticidal activity against adult Bemisia tabaci (sweet potato whitefly) infested cotton leaves assessed as decrease in egg production at 0.375 mg ai/seed measured 10 to 40 days post germination under green house conditions relative to untreated control. The class given is functional, organism-based.
For series [5], the system named is Bemisia tabaci. Briefly: Insecticidal activity against nymph stage of Bemisia tabaci (sweet potato whitefly) infested cotton leaves assessed as mortality at 0.375 mg ai/seed measured 10 to 40 days post germination under laboratory conditions relative to untreated control. The class given is functional, organism-based.
The test system of series [6] is Bemisia tabaci. The series can be described thus: Insecticidal activity against adult Bemisia tabaci (sweet potato whitefly) infested cotton leaves assessed as increase in mortality at 0.375 mg ai/seed measured 2 weeks post sowing to 9 weeks under field conditions relative to untreated control. The class given is functional, organism-based.
Series [7] concerns Bemisia tabaci. The series can be described thus: Insecticidal activity against adult Bemisia tabaci (sweet potato whitefly) infested cotton leaves assessed as decrease in egg deposition at 0.375 mg ai/seed measured 10 to 40 days post germination under laboratory conditions relative to untreated control. The class given is functional, organism-based.
Series [8] concerns Bemisia tabaci. Briefly: Insecticidal activity against adult Bemisia tabaci (sweet potato whitefly) infested cotton leaves assessed as increase in mortality at 0.375 mg ai/seed measured 10 to 40 days post germination under green house conditions relative to untreated control. In kind it is functional, organism-based.
Series [9] deals with Bemisia tabaci. Briefly: Insecticidal activity against adult Bemisia tabaci (sweet potato whitefly) infested cotton leaves assessed as increase in mortality at 0.375 mg ai/seed measured 10 to 40 days post germination under laboratory conditions relative to untreated control. The class given is functional, organism-based.
Series [10] concerns Cotyledon. The series can be described thus: Drug uptake in Gossypium hirsutum (cotton) cotyledon at 0.375 mg ai/seed measured 10 days post germination under green house conditions. The class given is ADME. The conditions noted are these: in vivo, other, 240 h.
For series [11], the system named is Leaf. Briefly: Drug uptake in Gossypium hirsutum (cotton) leaf at 0.375 mg ai/seed measured 10 days post germination under green house conditions. As to conditions: in vivo, other, 240 h. In kind it is ADME.
Series [12] relates to Bemisia tabaci. The series can be described thus: Insecticidal activity against adult Bemisia tabaci (sweet potato whitefly) infested cotton leaves assessed as decrease in egg deposition at 0.342 mg ai/seed measured 10 to 40 days post germination under laboratory conditions relative to untreated control. In kind it is functional, organism-based.
Series [13] has as its system Bemisia tabaci. The series can be described thus: Insecticidal activity against adult Bemisia tabaci (sweet potato whitefly) infested cotton leaves assessed as increase in mortality at 0.342 mg ai/seed measured 10 to 40 days post germination under green house conditions relative to untreated control. In kind it is functional, organism-based.
Series [14] relates to Bemisia tabaci. The series can be described thus: Insecticidal activity against nymph stage of Bemisia tabaci (sweet potato whitefly) infested cotton leaves assessed as increase in mortality at 0.342 mg ai/seed measured 2 weeks post sowing to 9 weeks under field conditions relative to untreated control. The class given is functional, organism-based.
Series [15] has as its system Leaf. The series can be described thus: Drug uptake in Gossypium hirsutum (cotton) leaf at 0.342 mg ai/seed measured 10 days post germination under green house conditions. The class given is ADME. The conditions noted are these: in vivo, other, 240 h.
The test system of series [16] is Bemisia tabaci. The series can be described thus: Insecticidal activity against adult Bemisia tabaci (sweet potato whitefly) infested cotton leaves assessed as increase in mortality at 0.342 mg ai/seed measured 10 to 40 days post germination under laboratory conditions relative to untreated control. The class given is functional, organism-based.
In series [17] the test system is Cotyledon. The series can be described thus: Drug uptake in Gossypium hirsutum (cotton) cotyledon at 0.342 mg ai/seed measured 10 days post germination under green house conditions. In kind it is ADME. The conditions noted are these: in vivo, other, 240 h.
Series [18] concerns Bemisia tabaci. Briefly: Insecticidal activity against adult Bemisia tabaci (sweet potato whitefly) infested cotton leaves assessed as increase in mortality at 0.342 mg ai/seed measured 2 weeks post sowing to 9 weeks under field conditions relative to untreated control. The class given is functional, organism-based.
Series [19] has as its system Bemisia tabaci. The series can be described thus: Insecticidal activity against adult Bemisia tabaci (sweet potato whitefly) infested cotton leaves assessed as effect on laid eggs at 0.342 mg ai/seed measured 10 to 40 days post germination under laboratory conditions relative to untreated control. The class given is functional, organism-based.
Series [20] deals with Bemisia tabaci. The series can be described thus: Insecticidal activity against nymph stage of Bemisia tabaci (sweet potato whitefly) infested cotton leaves assessed as increase in mortality at 0.342 mg ai/seed measured 10 to 40 days post germination under laboratory conditions relative to untreated control. In kind it is functional, organism-based.
Series [21] relates to Bemisia tabaci. The series can be described thus: Insecticidal activity against nymph stage of Bemisia tabaci (sweet potato whitefly) infested cotton leaves assessed as increase in mortality at 0.342 mg ai/seed measured 10 to 40 days post germination under green house conditions relative to untreated control. In kind it is functional, organism-based.
For series [22], the system named is Bemisia tabaci. The series can be described thus: Insecticidal activity against adult Bemisia tabaci (sweet potato whitefly) infested cotton leaves assessed as decrease in egg production at 0.342 mg ai/seed measured 10 to 40 days post germination under green house conditions relative to untreated control. In kind it is functional, organism-based.

Activity calls are given as the source filed them. The calls are words filed in the database; no cut-off is given here.

As to `O=[N+]([O-])/N=C1\NCCN1Cc1ccc(Cl)nc1`, the result in the series on Bemisia tabaci [1], in the series with Bemisia tabaci [2], with Bemisia tabaci [4], with Bemisia tabaci [5], in the series with Bemisia tabaci [6] and with Bemisia tabaci [7] was Active. In addition, the outcome with Bemisia tabaci [8] and with Bemisia tabaci [9] was Active. Also, in the series on Bemisia tabaci [3], the outcome was inactive.
For the molecule `O=[N+]([O-])NC1=NCCN1Cc1ccc(Cl)nc1` [IMIDACLOPRID], the Drug uptake entry in the series on Cotyledon [10] and in the series on Leaf [11] was “Active” in each case.
In the case of `CN1COCN(Cc2cnc(Cl)s2)/C1=N\[N+](=O)[O-]` [THIAMETHOXAM], the outcome in the series on Bemisia tabaci [12], in the series with Bemisia tabaci [13], with Bemisia tabaci [14], with Bemisia tabaci [16], in the series with Bemisia tabaci [18] and in the series with Bemisia tabaci [20] was Active. Moreover, the result with Bemisia tabaci [21] and in the series with Bemisia tabaci [22] was Active. The Drug uptake result with Leaf [15] and in the series on Cotyledon [17] was “Active” in each case. The result with Bemisia tabaci [19] was inactive.

For the origin of these results see ChEMBL document CHEMBL3046934, “Effectiveness of thiamethoxam and imidacloprid seed treatments against Bemisia tabaci (Hemiptera: Aleyrodidae) on cotton” (Pest Manag Sci, 2011).
